Assay results as given in PubChem BioAssay AID248 (DTP/NCI, 2004).
Values joined by “and” are separate entries in the source; they are usually repeats but may differ in a detail not shown here. Equal entries are not always repeated. Toxic doses and inconclusive results are not listed.

Tested on: L1210 leukemia ip in BDF1 mice, survival T/C
Experiment: NCI In Vivo Anticancer Drug Screen. Data for tumor model L1210 Leukemia (intraperitoneal) in B6D2F1 (BDF1) mice
Conditions: endpoint: mean survival time, higher = longer survival
In short: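 Tumor was transplanted into mice, which were then dosed with test compound or vehicle alone. Survival was recorded for each group, and the treated figure was expressed relative to the control figure.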

## O=C(Nc1ccc(C2=NCCN2)cc1)c1ccc(C(=O)Nc2ccc(C3=NCCN3)cc2)cc1
dose: 60.0 mg/kg/injection, schedule: Q01DX Z (ip), vehicle: acid diluted with saline
  T/C: 153 % of control
dose: 60.0 mg/kg/injection, schedule: Q01DX Z (ip), vehicle: carboxymethylcellulose (CMC)
  T/C: 246 % of control
dose: 60.0 mg/kg/injection, schedule: Q03DX Z (ip), vehicle: saline
  T/C: 304 % of control
dose: 62.5 mg/kg/injection, schedule: Q01DX004 (im), vehicle: olive oil, sesame oil, peanut oil
  T/C: 100 % of control
dose: 62.5 mg/kg/injection, schedule: Q01DX Z (ip), vehicle: other
  T/C: 111 % of control
dose: 62.5 mg/kg/injection, schedule: Q01DX Z (sc), vehicle: other
  T/C: 158 % of control
dose: 70.0 mg/kg/injection, schedule: Q01DX001 (ip), vehicle: saline
  T/C: 156 % of control and 161 % of control
dose: 70.0 mg/kg/injection, schedule: Q07DX Z (ip), vehicle: saline
  T/C: 205 % of control
dose: 80.0 mg/kg/injection, schedule: Q01DX Z (ip), vehicle: saline
  T/C: 183 % of control
dose: 80.0 mg/kg/injection, schedule: Q#A X Z (ip), vehicle: saline
  T/C: 210 % of control
dose: 120.0 mg/kg/injection, schedule: Q01DX Z (ip), vehicle: acid diluted with saline
  T/C: 176 % of control
dose: 120.0 mg/kg/injection, schedule: Q01DX Z (ip), vehicle: carboxymethylcellulose (CMC)
  T/C: 115 % of control and 204 % of control
dose: 120.0 mg/kg/injection, schedule: Q03DX Z (ip), vehicle: saline
  T/C: 243 % of control and 252 % of control
dose: 125.0 mg/kg/injection, schedule: Q01DX004 (im), vehicle: olive oil, sesame oil, peanut oil
  T/C: 100 % of control
dose: 125.0 mg/kg/injection, schedule: Q01DX Z (ip), vehicle: other
  T/C: 97 % of control
dose: 125.0 mg/kg/injection, schedule: Q01DX Z (sc), vehicle: other
  T/C: 161 % of control
dose: 140.0 mg/kg/injection, schedule: Q01DX001 (ip), vehicle: saline
  T/C: 223 % of control
dose: 140.0 mg/kg/injection, schedule: Q07DX Z (ip), vehicle: saline
  T/C: 282 % of control
dose: 160.0 mg/kg/injection, schedule: Q01DX Z (ip), vehicle: saline
  T/C: 174 % of control
dose: 160.0 mg/kg/injection, schedule: Q#A X Z (ip), vehicle: saline
  T/C: 176 % of control
dose: 250.0 mg/kg/injection, schedule: Q01DX004 (im), vehicle: olive oil, sesame oil, peanut oil
  T/C: 121 % of control
dose: 250.0 mg/kg/injection, schedule: Q01DX004 (im), vehicle: saline
  T/C: 204 % of control and 208 % of control
dose: 250.0 mg/kg/injection, schedule: Q01DX Z (sc), vehicle: other
  T/C: 168 % of control
dose: 250.0 mg/kg/injection, schedule: Q01DX Z (sc), vehicle: saline
  T/C: 217 % of control
dose: 280.0 mg/kg/injection, schedule: Q07DX Z (ip), vehicle: saline
  T/C: 250 % of control and 327 % of control
dose: 320.0 mg/kg/injection, schedule: Q01DX Z (ip), vehicle: saline
  T/C: 162 % of control
dose: 480.0 mg/kg/injection, schedule: Q03DX Z (ip), vehicle: saline
  T/C: 194 % of control
dose: 500.0 mg/kg/injection, schedule: Q01DX004 (im), vehicle: saline
  T/C: 262 % of control
dose: 500.0 mg/kg/injection, schedule: Q01DX Z (sc), vehicle: saline
  T/C: 195 % of control
dose: 560.0 mg/kg/injection, schedule: Q01DX001 (ip), vehicle: saline
  T/C: 184 % of control and 210 % of control
dose: 560.0 mg/kg/injection, schedule: Q07DX Z (ip), vehicle: saline
  T/C: 261 % of control
dose: 640.0 mg/kg/injection, schedule: Q01DX Z (ip), vehicle: saline
  T/C: 124 % of control
dose: 750.0 mg/kg/injection, schedule: Q01DX Z (sc), vehicle: saline
  T/C: 183 % of control and 290 % of control
dose: 960.0 mg/kg/injection, schedule: Q03DX Z (ip), vehicle: saline
  T/C: 164 % of control
dose: 1000.0 mg/kg/injection, schedule: Q01DX004 (im), vehicle: saline
  T/C: 267 % of control
dose: 1112.0 mg/kg/injection, schedule: Q01DX001 (ip), vehicle: saline
  T/C: 157 % of control
dose: 1500.0 mg/kg/injection, schedule: Q01DX Z (sc), vehicle: saline
  T/C: 215 % of control
dose: 18.8 micrograms/kg/injection, schedule: Q01DX Z (ip), vehicle: saline
  T/C: 96 % of control
dose: 37.5 micrograms/kg/injection, schedule: Q01DX Z (ip), vehicle: saline
  T/C: 96 % of control
dose: 75.0 micrograms/kg/injection, schedule: Q01DX Z (ip), vehicle: saline
  T/C: 100 % of control
dose: 150.0 micrograms/kg/injection, schedule: Q01DX Z (ip), vehicle: saline
  T/C: 94 % of control
dose: 230.0 micrograms/kg/injection, schedule: Q01DX Z (ip), vehicle: carboxymethylcellulose (CMC)
  T/C: 98 % of control
dose: 460.0 micrograms/kg/injection, schedule: Q01DX Z (ip), vehicle: carboxymethylcellulose (CMC)
  T/C: 118 % of control
dose: 930.0 micrograms/kg/injection, schedule: Q01DX Z (ip), vehicle: carboxymethylcellulose (CMC)
  T/C: 113 % of control
